Values of other authors as cited in the CATMoS acute toxicity set (Mansouri et al. 2021).
Values joined by “and” are separate entries in the source; they are usually repeats but may differ in a detail not shown here. Identical values can stand only once.

Experiment: rat acute oral toxicity
Conditions: in vivo

SMILES	LD50
Nc1ncnc2c1ccn2C1OC(CO)C(O)C1O (stereo unspecified)	16 mg/kg
C=COCC(CC)CCCC (stereo unspecified)	1350 mg/kg
COc1ccc2c(c1)-c1c(ccc(OC)c1O)CC(CCc1ccccc1)N(C)CC2 (stereo unspecified)	500 mg/kg
CN(C)CCN(CCN(C)C)n1cc(-c2ccccc2)c2ccccc21	1250 mg/kg
CC(C)C12CCC(C)(CC1)O2	3100 mg/kg
CCCCCOC(C[n+]1ccccc1)c1ccc(C2CCCCC2)cc1 (stereo unspecified)	250 mg/kg
Cc1cn([C@H]2C[C@H](N=[N+]=[N-])[C@@H](CO)O2)c(=O)[nH]c1=O	3080 mg/kg
C/C=N/N(C)C=O	320 mg/kg
Cc1ccsc1/C=C/C1=NCCCN1C	926 mg/kg
O=C(O)c1ccccc1OP(=O)(O)O	1100 mg/kg
C[N+]1(C)CCCCC1COC(=O)C(O)(c1ccccc1)c1ccccc1 (stereo unspecified)	5080 mg/kg
NC(=O)C1c2ccccc2C=Cc2ccccc21	1800 mg/kg
CCN(N=O)C(C)C	1100 mg/kg
CCCOP(=O)(SCCC)SCCC	129 mg/kg
CCN(CC)CCNc1c(Cl)cc(C)c2ncccc12	900 mg/kg
Nc1ccccc1C(=O)O	5410 mg/kg
O=C1CCC(N2C(=O)c3ccccc3C2=O)C(=O)N1 (stereo unspecified)	113 mg/kg
CNC(=O)Oc1ccc(NC(C)=O)cc1	794 mg/kg
CC1(C)S[C@@H]2[C@H](NC(=O)COc3ccc(Cl)c(Cl)c3)C(=O)N2[C@H]1C(=O)O	2500 mg/kg
COCCN1C=CC(=C2C(=O)c3ccccc3C2=O)C=C1	350 mg/kg
ClCCOCCC(OCCCl)OCCCl	710 mg/kg
Cc1cc(Cl)ccc1OCC(=O)O	1200 mg/kg and 800 mg/kg
C=CC(=O)OCC(C)OCC(C)OCC(C)OC(=O)C=C (stereo unspecified)	6200 mg/kg
CC(C)NC(=O)OC1CCN(CCCC(=O)c2ccc(F)cc2)CC1	310 mg/kg
N#Cc1ccc(N)cc1	283 mg/kg
CCCOP(=O)(OCCC)Oc1ccc2c(C)c(Cl)c(=O)oc2c1	80 mg/kg

SMILES	LD50
CN(C)CCC(c1ccccc1)c1ccccn1 (stereo unspecified)	520 mg/kg
Cc1c(C)c(C)c2[nH]c(C(F)(F)F)nc2c1C	58 mg/kg
CCC1OCSC1=NOC(=O)NC (stereo unspecified)	24 mg/kg
CNC(=O)C(Cl)C(C)=O (stereo unspecified)	700 mg/kg
CO[Si](CCCCCCCCCC[Si](OC)(OC)OC)(OC)OC	2200 mg/kg
Fc1c(Cl)c(Br)c2[nH]c(C(F)(F)F)nc2c1Cl	6.26 mg/kg
CCCCCCCCOC(CBr)c1ccc(C(C)(C)C)cc1 (stereo unspecified)	250 mg/kg
CC(C)(C)NCC(O)COc1cc(Cl)ccc1Cl (stereo unspecified)	1300 mg/kg
COC(=O)CNC[P@](=O)(O)Oc1ccccc1	4100 mg/kg
CC(=O)c1cccc2ccccc12	1560 mg/kg
COC(C=Cc1ccccc1)OC	3700 mg/kg
CCCC(C)=NO	1130 mg/kg
CCN(CC)CCCC(C)Nc1c2cc(Cl)ccc2nc2ccc(OC)cc12 (stereo unspecified)	4400 mg/kg
O=[N+]([O-])c1cc(C(F)(F)F)ccc1Cl	1080 mg/kg
CC(=O)OC(C)(C)C1CC=C(C)CC1 (stereo unspecified)	5080 mg/kg
CCCn1c(=O)c2[nH]c(C)nc2n(CC(C)C)c1=O	19 mg/kg
C1=CCCCC1	1950 mg/kg
CNCCCN1c2ccccc2CCc2ccccc21	375 mg/kg and 871 mg/kg
Cc1cc(-c2ccc(/N=N/c3c(N)c(C)cc(S(=O)(=O)O)c3N)c(C)c2)ccc1/N=N/c1ccc(O)c(C(=O)O)c1	6830 mg/kg
CCOc1cc(C(C)(C)C)ccc1C1COC(c2c(F)cccc2F)=N1 (stereo unspecified)	4270 mg/kg
CC(=O)C=Cc1ccc2c(c1)OCO2	4000 mg/kg
COc1cc(C(=O)OCCCCN2CCN(c3ccccc3)CC2)cc(OC)c1OC	2500 mg/kg
OC[C@H]1CO[C@@H](Cc2ccccc2)O1	1720 mg/kg
C=C(Nc1ccc(NC(=O)COC)cc1)N(C)C	4690 mg/kg
O=C(OCCCOC(=O)c1ccccc1)c1ccccc1	24000 mg/kg
C=Cc1ccc(C=O)o1	2080 mg/kg

SMILES	LD50
C=CCOC(=O)CC(C)C	230 mg/kg
CC(O)CN(CC(C)O)c1nc(Nc2ccc(S(=O)(=O)O)cc2)nc(Nc2ccc(/C=C/c3ccc(Nc4nc(Nc5ccc(S(=O)(=O)O)cc5)nc(N(CC(C)O)CC(C)O)n4)cc3S(=O)(=O)O)c(S(=O)(=O)O)c2)n1 (stereo unspecified)	12100 mg/kg
Cc1cc(C(=O)NNC(C)Cc2ccccc2)no1 (stereo unspecified)	89 mg/kg
CCCCC(CC)OCCO (stereo unspecified)	2280 mg/kg
O=C(O)c1c(Cl)ccc2cc(Cl)cnc12	2190 mg/kg
C=CC(=O)NC(OC)C(=O)OC (stereo unspecified)	2090 mg/kg
CSCc1cnc(C)c(O)c1CO	4300 mg/kg
O=C(Cl)C(Cl)(Cl)Cl	600 mg/kg
C[N+]1(C)CCC(OC(=O)C(O)(c2ccccc2)c2cccs2)C1 (stereo unspecified)	3580 mg/kg
CCOC(=O)CC	8730 mg/kg
Clc1cccc(C(Cl)(Cl)Cl)n1	940 mg/kg
Cc1cccc(C)c1NC(=O)CN1CCCC1=O	1180 mg/kg
CC(=O)N(C)N=O	20 mg/kg
CC1C(C)(C)C2=C(C(=O)CCC2)C1(C)C (stereo unspecified)	2900 mg/kg
COc1ccc(CCl)cc1OC	4700 mg/kg
CCN(CC)C(=S)S	1000 mg/kg
CC(C)CC(CC(C)C)OCCOCCO	8680 mg/kg
O=C(OCC1CO1)c1cccc(C(=O)OCC2CO2)c1 (stereo unspecified)	1000 mg/kg
CCOP(=O)(OCC)SCC(C)(SCC)SCC	15 mg/kg
CN1CCN(C2=Cc3ccccc3Oc3ccc(F)cc32)CC1	646 mg/kg
CC(=O)CCC1C(=O)N(c2ccccc2)N(c2ccccc2)C1=O	720 mg/kg
CC(O)CC(C)O (stereo unspecified)	6860 mg/kg
Cc1ccccc1-n1c(C)nc2ccccc2c1=O	185 mg/kg
CCOP(=S)(OCC)Oc1ccc(N=C=S)cc1	251 mg/kg
